{
  "source": "patent US20250367283A1",
  "about": "“MEVALONATE PATHWAY INHIBITOR AS HIGHLY-EFFICIENT VACCINE ADJUVANT” (Tsinghua University, priority 2015, published 2025)",
  "key": {"Vγ9Vδ2 T cells": {"tested_on": "Vγ9Vδ2 T cells", "assay": "Expansion of Vγ9Vδ2 T cells from PBMCs", "assay_type": "cell-based, human", "conditions": "4 μM bisphosphonate, 200 U/mL rIL-2, day 12", "procedure": "Human peripheral blood mononuclear cells (PBMCs) were prepared from healthy volunteers by Ficoll-Hypaque density gradient centrifugation. […] Cells were harvested on day 12 and stained with FITC-anti-CD3 (Miltenyi Biotec) and PE-anti-[…] (Miltenyi Biotec) monoclonal antibodies. Flow cytometry was used for detection. Prism 5.0 was used to analyze the data."}, "[1]": {"tested_on": "anti-OVA IgM and IgG antibodies", "assay": "Combined adjuvant effect of FPPS inhibitor and TLR agonist, OVA titer", "assay_type": "in vivo, mice", "procedure": "Two compounds, TH-Z93 and Imiquimod, were formulated at a concentration of 4 mg/ml, and OVA antigen at a concentration of 10 mg/ml. When used alone, 5 μl of TH-Z93 or imiquimod was added as an adjuvant and mixed with 10 μl of antigen and 5 μl of PBS. When two adjuvants were used in combination, each of the adjuvants were added in an amount of 5 μl and mixed with 10 μl of antigen, and the total volumes were 20 μl. The mice used are of C57B/6 strain. An equal volume of PBS without any adjuvant was used for mice in the control group. The mice was injected at the soles of the right feet. On Day 7 and Day 14 after immunization, blood was taken from the mice's orbits, and 100 μl was taken for each mouse. The obtained blood was left at 4° C. overnight, and then the serum was separated. The titers of anti-OVA IgM and IgG antibodies in the serum were determined."}, "[2]": {"molecular_target": "HsGGPPS (humanized geranylgeranyl pyrophosphate synthase) (Homo sapiens (Human), UniProt O95749)", "sequence (O95749 whole entry, looked up)": "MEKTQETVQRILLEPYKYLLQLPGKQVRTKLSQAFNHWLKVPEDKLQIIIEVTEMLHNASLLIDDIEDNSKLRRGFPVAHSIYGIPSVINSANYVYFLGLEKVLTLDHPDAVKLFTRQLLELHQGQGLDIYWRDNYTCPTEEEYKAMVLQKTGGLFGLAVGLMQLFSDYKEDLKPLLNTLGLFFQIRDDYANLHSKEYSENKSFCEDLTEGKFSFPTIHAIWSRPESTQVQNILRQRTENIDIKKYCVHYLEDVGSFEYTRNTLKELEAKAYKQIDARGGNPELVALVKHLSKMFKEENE", "assay": "HsGGPPS enzyme inhibition test", "assay_type": "biochemical", "procedure": "The inhibitory activities of compounds TH-Z144 and TH-Z145 on GGPPS (geranylgeranyl pyrophosphate synthase) were tested by referring to the expression and purification method for HsGGPPS (humanized geranylgeranyl pyrophosphate synthase) in the reference (Szabo, C. M., et al., Inhibition of Geranylgeranyl Diphosphate Synthase by Bisphosphonates and Diphosphates: A Potential Route to New Bone Antiresorption and Antiparasitic Agents. Journal of Medicinal Chemistry, 2002. 45 (11): p. 2185-2196.) and the method for testing enzyme activity in the reference (Zhang, Y., et al., Lipophilic Bisphosphonates as Dual Farnesyl/Geranylgeranyl Diphosphate Synthase Inhibitors: An X-ray and NMR Investigation. Journal of the American Chemical Society, 2009. 131 (14): p. 5153-5162.) The data of the activity test were as follows: […]"}},
  "data": [
    {"compound": "CCCCCCOc1ccc2c(c1)ncn2CC(O)(P(=O)(O)O)P(=O)(O)O", "note": "[TH-Z80]", "values": [
      {"measurement": "amplification effect on Vγ9Vδ2 T cells", "setting": "Vγ9Vδ2 T cells", "value": "best amplification effect on Vγ9Vδ2 T cells"}
    ]},
    {"compound": "CCCCCCOc1ccnc(NC(P(=O)(O)O)P(=O)(O)O)c1", "note": "[TH-Z93, (((4-(hexyloxy)pyridin-2-yl)amino)methylene)bisphosphonic acid]", "values": [
      {"measurement": "antibody titers vs PBS control, adjuvant used alone", "setting": "[1]; soles of right feet", "value": "significant high titers"},
      {"measurement": "antibody titers vs imiquimod alone", "setting": "[1]; used alone", "value": "significantly superior to those of mice treated with imiquimod alone"}
    ]},
    {"compound": "(2-(3-(octyloxy)phenyl)ethane-1,1-diyl)bisphosphonic acid [TH-Z145]", "values": [
      {"measurement": "IC50 (inhibition of GGPPS)", "setting": "[2]", "value": "effectively inhibit the activity of GGPPS"},
      {"measurement": "IC50", "setting": "[2]; read-out: IC50 (inhibition of GGPPS)", "value": 660, "unit": "nM"}
    ]}
  ]
}
